In patent US20210369677A1, “SMALL MOLECULE ACTIVATORS OF POLYCYSTIN-2 (PKD2) AND USES THEREOF” (Northwestern University, priority 2020, published 2021):

Biological target: T1, polycystin-2 (Homo sapiens, UniProt Q13563)
T1 construct: expressed in transfected cells
T1 sequence (Q13563 1-968): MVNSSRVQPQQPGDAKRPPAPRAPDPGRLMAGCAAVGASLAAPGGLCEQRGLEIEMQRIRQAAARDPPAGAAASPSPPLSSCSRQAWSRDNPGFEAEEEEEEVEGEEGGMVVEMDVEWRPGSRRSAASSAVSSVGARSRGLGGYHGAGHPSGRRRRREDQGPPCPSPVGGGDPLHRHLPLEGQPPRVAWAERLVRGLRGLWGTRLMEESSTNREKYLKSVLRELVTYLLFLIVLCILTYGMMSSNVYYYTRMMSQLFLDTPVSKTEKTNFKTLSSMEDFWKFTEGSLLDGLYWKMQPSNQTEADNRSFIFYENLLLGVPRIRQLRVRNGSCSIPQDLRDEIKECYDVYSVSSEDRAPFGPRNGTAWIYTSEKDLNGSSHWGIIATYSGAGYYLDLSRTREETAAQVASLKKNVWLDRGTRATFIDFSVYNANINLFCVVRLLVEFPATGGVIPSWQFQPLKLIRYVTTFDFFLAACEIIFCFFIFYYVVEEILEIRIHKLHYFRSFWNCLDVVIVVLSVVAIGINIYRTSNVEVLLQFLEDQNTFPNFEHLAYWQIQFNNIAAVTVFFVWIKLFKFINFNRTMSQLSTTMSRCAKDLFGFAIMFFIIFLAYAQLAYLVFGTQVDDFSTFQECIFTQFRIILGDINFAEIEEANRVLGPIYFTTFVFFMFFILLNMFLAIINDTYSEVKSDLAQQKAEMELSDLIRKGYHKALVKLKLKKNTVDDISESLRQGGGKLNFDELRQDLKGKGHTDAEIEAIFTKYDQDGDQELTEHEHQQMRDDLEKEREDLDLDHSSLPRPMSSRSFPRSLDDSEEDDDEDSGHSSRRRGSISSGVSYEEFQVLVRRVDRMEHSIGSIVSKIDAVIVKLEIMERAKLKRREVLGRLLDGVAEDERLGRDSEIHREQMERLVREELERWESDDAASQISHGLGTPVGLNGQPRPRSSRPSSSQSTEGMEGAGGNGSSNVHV
Assay: Inside-out cilia patch of HEK cells, voltage dependent channel opening at low and high intraciliary Ca2+
Format: cell-based
Settings: from low (100 nM) to high (100 μM) Ca2+, WT channels
Text: To test whether calcium occupancy of the EF hand is responsible for CDM and CDD of human polycystin-2, we generated double alanine mutations at the −X ([…]) and −Z vertices (E774A) which abolished Ca^2+ affinity for the CTD fragment (FIG. 17B). We then expressed the −X-Z double mutation in PKD2-GFP in a PKD2^null HEK cell line, so that exogenous channels could be assayed without the contribution of endogenous PKD2 alleles, as previously described (Vien et al., 2020). The stably expressed human WT and −X-Z channels trafficked to the primary cilia, and glass electrodes with submicron apertures were fabricated to form high resistance electrical seals with the GFP-illuminated cilia membranes (FIG. 18A). […] These experiments were performed with only one channel present in the membrane, so that stochastic effects on single channel states could be determined. […]
Electrophysiology. The electrophysiologist was blinded by a third party in the laboratory, where test groups were assigned a letter to conceal the genetic identity of the cells being evaluated. […] Ciliary ion currents were recorded using borosilicate glass electrodes polished to resistances of 14-23 MΩ using the cilium patch method previously described (Vien et al., 2020). Single channel currents measured in the inside-out configuration were recorded in symmetrical sodium concentrations. […]

`[Ca+2]` [Ca^2+, calcium] was tested, and the “Shift in the voltage-dependence of half maximal open probability (V1/2)” value was −47 mV.
